Reference: paper PMC10341549, “Inhibitory Investigations of Acyl-CoA Derivatives against Human Lipoxygenase Isozymes” (International Journal of Molecular Sciences, 2023)

Columns and labels:
h5-LOX = target: T1, h5-LOX (Homo sapiens, UniProt P09917, C241A/C562A/D45S/DEL41-43/F15H/K654E/K655N/K656L/L77S/N44G/W14E/W76G); assay: IC50 determination against h5-LOX; type: biochemical; conditions: 10 μM AA, 50 mM HEPES pH 7.5, 200 µM ATP, ammonium-sulfate precipitate enzyme, 22 °C
T1 sequence (P09917 with tags, fused parts or gaps W14E/F15H/DEL41-43/N44G/D45S/W76G/L77S/C241A/C562A/K654E/K655N/K656L): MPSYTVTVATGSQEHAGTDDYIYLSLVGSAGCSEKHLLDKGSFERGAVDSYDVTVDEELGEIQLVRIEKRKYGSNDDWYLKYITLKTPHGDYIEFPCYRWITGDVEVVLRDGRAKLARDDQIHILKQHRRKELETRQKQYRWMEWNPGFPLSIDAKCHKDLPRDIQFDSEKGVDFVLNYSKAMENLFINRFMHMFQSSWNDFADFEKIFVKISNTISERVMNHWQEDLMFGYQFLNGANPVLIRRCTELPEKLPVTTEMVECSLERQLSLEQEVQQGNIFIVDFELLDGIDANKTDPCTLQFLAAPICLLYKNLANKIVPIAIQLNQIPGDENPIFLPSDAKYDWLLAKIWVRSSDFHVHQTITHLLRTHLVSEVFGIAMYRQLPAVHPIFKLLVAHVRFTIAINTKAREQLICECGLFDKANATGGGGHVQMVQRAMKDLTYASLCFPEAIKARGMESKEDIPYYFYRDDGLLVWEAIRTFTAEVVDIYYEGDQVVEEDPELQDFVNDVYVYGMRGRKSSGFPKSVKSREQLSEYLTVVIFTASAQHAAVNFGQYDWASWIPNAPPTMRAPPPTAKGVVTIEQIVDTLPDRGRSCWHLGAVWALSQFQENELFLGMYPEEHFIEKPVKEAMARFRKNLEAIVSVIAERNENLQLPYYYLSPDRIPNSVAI

h15-LOX-1 = target: T2, h15-LOX-1 (Homo sapiens, UniProt P16050); assay: IC50 determination against h15-LOX-1; type: biochemical; conditions: 10 μM AA, 25 mM HEPES pH 7.5, 0.01% Triton X-100, 22 °C
T2 construct: His tag; made in house
T2 sequence (P16050 1-662): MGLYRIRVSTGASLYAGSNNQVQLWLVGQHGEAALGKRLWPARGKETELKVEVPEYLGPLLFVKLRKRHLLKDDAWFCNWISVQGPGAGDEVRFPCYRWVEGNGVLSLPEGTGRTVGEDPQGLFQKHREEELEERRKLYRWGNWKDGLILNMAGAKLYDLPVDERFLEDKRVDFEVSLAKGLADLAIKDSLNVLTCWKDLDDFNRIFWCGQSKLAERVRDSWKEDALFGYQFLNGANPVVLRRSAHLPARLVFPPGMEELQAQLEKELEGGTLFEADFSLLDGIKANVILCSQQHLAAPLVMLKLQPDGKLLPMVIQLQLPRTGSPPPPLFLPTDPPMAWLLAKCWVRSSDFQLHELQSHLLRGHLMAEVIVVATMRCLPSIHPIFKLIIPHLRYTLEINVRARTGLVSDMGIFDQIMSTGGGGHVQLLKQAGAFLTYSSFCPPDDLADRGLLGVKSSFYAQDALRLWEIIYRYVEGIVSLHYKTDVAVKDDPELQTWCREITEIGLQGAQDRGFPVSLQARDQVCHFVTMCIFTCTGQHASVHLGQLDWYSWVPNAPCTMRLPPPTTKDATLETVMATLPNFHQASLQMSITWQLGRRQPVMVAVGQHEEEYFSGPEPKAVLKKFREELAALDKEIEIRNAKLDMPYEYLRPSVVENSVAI
Protocol: Overexpression and purification of his-tagged wild-type h12-LOX (Uniprot entry P18054), h15-LOX-1 (Uniprot entry P16050), and h15-LOX-2 (Uniprot entry O15296) were performed using nickel-affinity chromatography. The purity of h12-LOX, h15-LOX-1, and h15-LOX-2 was assessed using SDS gel as greater than 85%, and metal content was assessed with a Finnigan inductively coupled plasma mass spectrometer (ICP-MS, Thermo Fischer Scientific, San Jose, USA) via comparison with iron standard solution. Cobalt-EDTA was used as an internal standard. WT h5-LOX (UniProt entry P09917) was expressed in Rosetta 2 cells (Novagen) transformed with the pET14b-Stable-5-LOX plasmid (a gift from Marcia Newcomer of Louisiana State University) and grown in Terrific Broth containing 34 μg/mL chloramphenicol and 100 μg/mL ampicillin at 37 °C for 3.5 h, then placed at 20 °C for an additional 26 h. Cells were pelleted and resuspended in 50 mM Tris (pH 8.0), 500 mM NaCl, 20 mM imidazole with 1 μM pepstatin, 100 μM PMSF, and DNaseI (Sigma, Kanagawa, Japan). The cells were lysed in a French pressure cell and centrifuged at 40,000× g for 20 min at 4 °C. Saturated ammonium sulfate was added to achieve a final solution of 10% and inverted several times. The lysate was centrifuged at 40,000× g for 10 min at 4 °C. The pellet was discarded, and the supernatant was increased to a final concentration of 50% ammonium sulfate. The supernatant was rotated for 10 min at 4 °C then centrifuged at 40,000× g for 10 min at 4 °C. The pellet was split into 150 mg aliquots. The WT h5-LOX used for the kinetics in this work was not purified due to a dramatic loss in activity and was therefore prepared as an ammonium-sulfate precipitate.
IC50 values for each acyl-CoA were measured against h5-LOX, h12-LOX, h15-LOX-1, and h15-LOX-2. The reactions were carried out in 25 mM HEPES buffer (pH 8.00), 0.01% Triton X-100, and 10 μM AA for h12-LOX; 25 mM HEPES buffer (pH 7.5), 0.01% Triton X-100, and 10 μM AA for h15-LOX-1 and h15-LOX-2; and 50 mM HEPES buffer (pH 7.5), 100 µM EDTA, 50 mM NaCl, 200 µM ATP, and 10 μM AA for h5-LOX. IC50 reactions were implemented with h15-LOX-1 (0.125 μM), h12-LOX (0.300 μM), h15-LOX-2 (0.5 μM), and h5-LOX (∼600 nM ammonium sulfate salt) at 22 °C in a 1 cm^2 quartz cuvette containing 2 mL of the according buffer and 10 μM AA for no longer than 2 min to avoid any cleavage of the acyl-coenzyme A. Inhibitor concentrations ranging from 50 μM to 0.01 μM were used. All reactions were conducted using a Cary-UV Vis spectrophotometer (Agilent, Santa Clara, CA, USA). The fastest rates over 15 s intervals were recorded. IC50 values were obtained by determining the percent of inhibition of the enzymatic rate at ten inhibitor concentrations and plotting the rate against the inhibitor concentration, followed by a hyperbolic saturation curve fit. The saturation curve fits were performed in duplicate or triplicate, depending on the quality of the data. […] Through HPLC monitoring, we were able to determine a lack of degradation of the fatty acyl-CoAs over the first hour.

Row | IC50 (h5-LOX) [µM] | IC50 (h15-LOX-1) [µM] | Structure (SMILES)
1 | > 200 | > 500 | CCCCC/C=C\C/C=C\C/C=C\C/C=C\CCCC(=O)SCCNC(=O)CCNC(=O)[C@H](O)C(C)(C)COP(=O)(O)OP(=O)(O)OC[C@H]1O[C@@H](n2cnc3c(N)ncnc32)[C@H](O)[C@@H]1OP(=O)(O)O [Arachidonoyl-CoA (20:4), arachidonoyl-coenzyme A (20:4)]
2 |  | > 500 | CC/C=C\C/C=C\C/C=C\C/C=C\C/C=C\C/C=C\CCC(=O)SCCNC(=O)CCNC(=O)C(O)C(C)(C)COP(=O)(O)OP(=O)(O)OC[C@H]1O[C@@H](n2cnc3c(N)ncnc32)[C@H](O)[C@@H]1OP(=O)(O)O (some centres unmarked) [Docosahexaenoyl CoA (22:6), docosahexaenoyl-coenzyme A (22:6)]
3 | > 100 |  | CCCCC/C=C\C/C=C\CCCCCCCC(=O)SCCNC(=O)CCNC(=O)[C@H](O)C(C)(C)COP(=O)(O)OP(=O)(O)OC[C@H]1O[C@@H](n2cnc3c(N)ncnc32)[C@H](O)[C@@H]1OP(=O)(O)O [Linoleoyl-CoA (18:2), linoleoyl-CoA]
4 | > 50 | 39 ± 2 | CCCCCCCC/C=C\CCCCCCCC(=O)SCCNC(=O)CCNC(=O)[C@H](O)C(C)(C)COP(=O)(O)OP(=O)(O)OC[C@H]1O[C@@H](n2cnc3c(N)ncnc32)[C@H](O)[C@@H]1OP(=O)(O)O [Oleoyl-CoA (18:1), oleoyl-coenzyme A (18:1)]
5 | 2 ± 0.4 | > 500 | CCCCCC/C=C\CCCCCCCC(=O)SCCNC(=O)CCNC(=O)[C@H](O)C(C)(C)COP(=O)(O)OP(=O)(O)OC[C@H]1O[C@@H](n2cnc3c(N)ncnc32)[C@H](O)[C@@H]1OP(=O)(O)O [Palmitoleoyl-CoA (16:1), palmitoleoyl-coenzyme A (16:1)]
6 | 3.3 ± 0.3 | > 500 | CCCCCCCCCCCCCCCC(=O)SCCNC(=O)CCNC(=O)[C@H](O)C(C)(C)COP(=O)(O)OP(=O)(O)OC[C@H]1O[C@@H](n2cnc3c(N)ncnc32)[C@H](O)[C@@H]1OP(=O)(O)O [Palmitoyl-CoA (16:0), palmitoyl-coenzyme A (16:0)]
7 | > 50 | 4.2 ± 0.6 | CCCCCCCCCCCCCCCCCC(=O)SCCNC(=O)CCNC(=O)[C@H](O)C(C)(C)COP(=O)(O)OP(=O)(O)OC[C@H]1O[C@@H](n2cnc3c(N)ncnc32)[C@H](O)[C@@H]1OP(=O)(O)O [Stearoyl-CoA (18:0), stearoyl-coenzyme A (18:0)]
8 | > 500 | > 500 | CCCCC/C=C\C/C=C\C/C=C\CCCCC(=O)SCCNC(=O)CCNC(=O)[C@H](O)C(C)(C)COP(=O)(O)OP(=O)(O)OC[C@H]1O[C@@H](n2cnc3c(N)ncnc32)[C@H](O)[C@@H]1OP(=O)(O)O [ɣ-Linolenoyl-CoA (18:3), ɣ-linolenoyl-coenzyme A (18:3)]
